From patent US10753892B2, “Non-invasive sensing of free metal ions using ion chemical exchange saturation transfer” (The Johns Hopkins University, priority 2013, dated 2020)
“And” between values parts separate entries of the source, which are not always exact repeats. Identical values can stand only once. “Also recorded” adds a separate entry of the source. Marks after values point to notes of the source that are not given here.

Key:
[1] = Relaxation times T1 and T2 of free 5F-BAPTA as a function of pH; type: physicochemical; settings: free 5F-BAPTA 20 mM
Protocol: The same image geometry as in the ^19F-CEST experiments was used for the determination of T1 and T2 of the imaged samples. For T1 measurements, a saturation recovery experiment was performed with TR values of 61, 214, 395, 615, 899, 1296 1964, and 4961 ms. A spin-echo experiment (TR=5000 ms) with multiple echoes was performed with variable echo times (TE=5, 10 15, 20, 25, 30, 35, and 40 ms) to determine the T2 value of each sample.
Numerical solutions to the six Bloch equations including direct saturation of free 5F-BAPTA were obtained as described previously (McMahon, M. T. et al., Magnetic Resonance in Medicine 2006, 55, 836). The relaxation parameters for ^19F used in the Bloch equations were R1=1/T1 with bound calcium (Rib)=0.71 s^−1, R2 bound calcium (R2b)=29 s^−1, whereas the R1 and R2 values of free 5F-BAPTA (R1f and R2f) were determined experimentally through inversion-recovery and saturation-recovery experiments as a function of pH on solutions containing 20 mM 5F-BAPTA as listed in Table 1 as follows: […]

[2] = 19F-iCEST MRI of 5F-BAPTA with Ca2+ (16.4 T, 37° C.), Bloch simulations; type: binding
Protocol: (§1) 5F-BAPTA was dissolved in Hepes buffer (40 mM) to a final concentration of 10 mM and the pH was adjusted to the following values: 5.6, 6.0, 6.4, 6.8, 7.0, 7.2, and 7.6. Stock 10 mM solutions of CaCl2, MgCl2, and ZnCl2 were prepared in 40 mM Hepes buffer. Five μL of the stock solution was added to 1 mL of 10 mM 5F-BAPTA resulting in a 200:1 ratio (10 mM: 50 μM) between the free 5F-BAPTA and the M^2+ ion following by a pH adjustment. One mL of each sample (with adjusted pH) was transferred into a 8 mm NMR tube within a 25 mm NMR tube in order to center the sample in the coil for the MRI experiments.
(§2) MRI experiments were performed on a vertical 16.4 T scanner (Bruker Avance system) at 37° C. A 25 mm birdcage radiofrequency coil was used to acquire both ^1H and ^19F MR images by sweeping the coil frequency from proton (700 MHz) to fluorine (658.8 MHz) frequency.
(§3) The saturation transfer effect on the free 5F-BAPTA, i.e., the MTR or iCEST, was calculated for each voxel in the image by using a Lorentzian line shape fitting as described in Jones et al. (Magn Reson Med 2012, 67, 1579), and Liu et al. (Molecular imaging 2012, 11, 47).
Numerical solutions to the six Bloch equations including direct saturation of free 5F-BAPTA were obtained as described previously (McMahon, M. T. et al., Magnetic Resonance in Medicine 2006, 55, 836). The relaxation parameters for ^19F used in the Bloch equations were R1=1/T1 with bound calcium (Rib)=0.71 s^−1, R2 bound calcium (R2b)=29 s^−1, whereas the R1 and R2 values of free 5F-BAPTA (R1f and R2f) were determined experimentally through inversion-recovery and saturation-recovery experiments as a function of pH on solutions containing 20 mM 5F-BAPTA as listed in Table 1 as follows:
(§4) Saturation time (tsat) was either 1500 ms to 2000 ms as indicated in the text.
An aqueous solution containing 0.5 mM of 5F-BAPTA and 500 nM in Hepes buffer (40 mM, pH=7.2) was transferred into a 20 mm NMR tube, which was located within a 25 mm NMR tube in order to centralize the sample in the coil for the MRI experiment. The same parameters used for ^19F-iCEST experiments were used except the followings: TR=3000 ms, RARE=8, FOV=6.0 cm (resolution=1.875×1.875 mm), and 168 averages.

[3] = 19F-iCEST MRI of 5F-BAPTA with Zn2+ (16.4 T, 37° C.); type: binding; settings: 10 mM 5F-BAPTA, 50 μM Zn2+, pH 7.2 and 6.4
Protocol: as §1, §2, §3, §4

[4] = 19F-iCEST MRI of 5F-BAPTA with Mg2+ (16.4 T, 37° C.); type: binding
Protocol: as §1, §2, §3, §4

[5] = 19F-CEST experiments with 5F-BAPTA at pH 7.0 (11.7 T NMR, 16.4 T MRI); type: binding; settings: 10 mM 5F-BAPTA, 100 μM M2+, saturation at Δω=5.8 ppm
Protocol: ^19F-CEST experiments were performed on solutions containing 1,2-Bis-[2-bis(carboxymethyl)amino-5-fluorophenoxy]ethane (5F-BAPTA), with and without divalent cations (M^2+).
Experiments were performed on an 11.7T NMR spectrometer (Bruker). 5F-BAPTA (AnaSpec, Inc.) was dissolved in 40 mM HEPES buffer (pH=7.0) to a concentration of 5 mM, and CaCl2 was dissolved to a final Ca^2+ concentration of 50 μm.
^19F-CEST spectra (z-spectra) were acquired with a saturation transfer sequence consisting of a saturation pulse (B1=4.7 μT, 4 sec) with variable offset (from −7.5 to +7.5 ppm relative to the 5FBAPTA frequency set at 0 ppm). Experiments were performed without (room temperature, RT) and with sample heating (37° C.). The MTRasym=100×(S−Δω−S+Δω)/S0 was computed at different offsets Δω, where S0 is the 5F-BAPTA signal without saturation.
Imaging experiments were performed on a 16.4T MRI scanner (Bruker). 5F-BAPTA was dissolved to 10 mM in 40 mM HEPES, pH=7.0, with or without 100 μM of M^2+ (Mg^2+, Zn^2+, or Ca^2+).
^19F-CEST images were acquired using a continuous wave presaturation pulse (B1=3.6 μT, 3 sec) followed by a multi-echo MRI pulse sequence (RARE, rare factor 4, TR/TE=6000/10 ms). FOV of 4×4 cm, matrix 32×32 and slice thickness 10 mm. Mean ^19F-CEST spectra were derived after B0 correction for each voxel using MatLab. MTRasym plots and maps were calculated.

[6] = Relaxation times T1 and T2 of free 5F-BAPTA as a function of pH; type: physicochemical; settings: pH 5.6, estimated from the Bloch equation fitting
[7] = cited from earlier work
[8] = London et al., 1994; cited from earlier work
[9] = Bloch simulations, two pool model
Protocol: (§5) Experiments were performed on solutions containing TF-BAPTA and multiple biologically relevant metal ions (K^+, Na^+, Ca^2+, Mg^2+, Cu^2+, Fe^2+ and Zn^2+) at 37° C. and pH=7.4. MR Spectroscopy as follows: TF-BAPTA was dissolved to a final concentration of 5 mM, and ions were add at 500 μM. Using 5-Fluorocytosine (5-FC) as an internal ^19F reference, ^19F-NMR spectra were acquired (11.7 T NMR spectrometer, Bruker). MRI: Experiments were performed on a 17.6 T MRI scanner (Bruker). TF-BAPTA was dissolved to 10 mM with 200″ AM of ion. A RARE (factor 8) sequence was used to acquire 1H MRI (TR/TE=5,000/7.7 ms, 1 mm slice, FOV=2×2 cm, matrix size=128×128). For ^19F MRI, the center frequency (O1) was set at the frequency of the 19F atom at the 6 position (0.0 ppm) of TF-BAPTA (FIG. 1a), while signal from the ^19F located at the 5 position of TF-BAPTA (FIG. 1a-b, 4.5 ppm downfield) was suppressed. A modified RARE sequence (TR/TE=4,000/3.4 ms, RARE factor=16, 6 mm slice, FOV=2×2 cm, matrix size=32×32, and a saturation pulse B1=1.2, 2.4 or 3.6 ItT/2 s) were used to acquire ^19F iCEST. Mean ^19F Z-spectra (iCEST spectra), were obtained after B0 correction. CEST contrasts, i.e., the magnetization transfer ratio (MTR) images were calculated after Lorentzian line shape fitting.

[10] = Bloch simulations, two pool model; remark: listed apart in the source
Protocol: as §5

O=C(O)CN(CC(=O)O)c1ccc(F)cc1OCCOc1cc(F)ccc1N(CC(=O)O)CC(=O)O [5F-BAPTA, 2,2′,2″,2′″-(2,2′-(Ethane-1,2-diylbis(oxy))bis(4-fluoro-2,1-phenylene))bis(azanetriyl)tetraacetic acid]
T1 ([1]; pH 5.6): 715 ms | T1 ([1]; pH 6.0): 715 ms | T2 ([1]; pH 6.0): 10 ms | T1 ([1]; pH 6.4): 715 ms | T2 ([1]; pH 6.4): 11 ms | T1 ([1]; pH 6.8): 715 ms | T2 ([1]; pH 6.8): 25 ms | T1 ([1]; pH 7.0): 715 ms | T2 ([1]; pH 7.0): 32 ms | T1 ([1]; pH 7.2): 715 ms | T2 ([1]; pH 7.2): 38 ms | T1 ([1]; pH 7.6): 715 ms | Ca2+ concentration detected by iCEST ([2]; 0.5 mM 5F-BAPTA, pH 7.2): 500 nM | iCEST (saturation transfer) contrast, Ca2+ containing sample ([2]; 10 mM 5F-BAPTA, 50 μM Ca2+, pH 7.2 and 6.4, B1=3.6 μT/2000 ms): pronounced saturation transfer contrast was detected; also recorded: large iCEST contrast was detected | kex between [Ca-5F-BAPTA] and 5F-BAPTA ([2]; Bloch simulations, all examined pH values): 190 s⁻¹ and 190 ± 10 s⁻¹ | Ca2+ specificity in a Zn2+ background ([2]; iCEST, FIGS. 13a-c): high Ca^2+ specificity | Ca2+ specificity in a Mg2+ background ([2]; iCEST, FIGS. 14a-c): high Ca^2+ specificity | amplification factor for Ca2+ ([2]; iCEST, kex 190 s−1): ~100 | iCEST contrast in the Z-spectrum ([2]; χCa=1:1000, 5 mM 5F-BAPTA, pH 7.2): ~11% | iCEST contrast, Zn2+ containing sample [3]: did not generate iCEST contrast | iCEST contrast, Mg2+ containing sample ([4]; 10 mM 5F-BAPTA, 50 μM Mg2+, pH 7.2 and 6.4): did not generate iCEST contrast | amplification factor for Mg2+ ([4]; iCEST, FIG. 10b): 10 | 19F-CEST MRI contrast among tubes with no M2+, Mg2+, Zn2+ or Ca2+ [5]: only the Ca^2+ containing solution generated contrast | T2 (ms) [6]: 6^a ms

O=C(O)CN(CC(=O)O)c1ccccc1OCCOc1ccccc1N(CC(=O)O)CC(=O)O [BAPTA, 1,2-bis(o-aminophenoxy)ethane-N,N,N′,N′-tetraacetic acid]
iCEST contrast produced by Ca2+ in mixtures ([2]; 50 μM Ca2+ with 200 μM Mg2+ or 50 μM Zn2+, 10 mM chelate, pH 7.2, Δω=6 ppm): ~22% | selectivity for Ca2+ over Mg2+ [7]: > 10^5

O=C(O)CN(CC(=O)O)c1cc(F)c(F)cc1OCCOc1cc(F)c(F)cc1N(CC(=O)O)CC(=O)O [TF-BAPTA, 5,5′, 6,6′-tetrafluoro-BAPTA]
exchange rate of Ca2+ with TF-BAPTA [8]: ~30,000 s−1 | exchange rate (kex) between free and Zn2+-bound TF-BAPTA [9]: ~20 s⁻¹ | exchange rate (kex) between free and Fe2+-bound TF-BAPTA [10]: ~20 s⁻¹
